Experimental data from patent US5580953A, “Amylin antagonist peptides and uses therefor” (Amylin Pharmaceuticals, Inc., priority 1991, dated 1996).
No end group written: not given here.

Key:
[1] = system: insulin-stimulated glycogen synthesis in soleus muscle; test: rat soleus muscle assay; format: cell-based; settings: for amylin agonist activity as measured by the soleus muscle assay: inhibition of insulin-stimulated glycogen synthesis; for amylin antagonist activity in the soleus muscle assay: resumption of insulin-stimulated glycogen synthesis in the presence of 100 nM rat amylin
Source text: Several assays have been developed to measure amylin activity and to evaluate new compounds. A receptor binding assay as described herein may be used to screen for or to identify compounds which bind to amylin receptors and which may, therefore, be candidate amylin agonists and antagonists. The rat soleus muscle assay may be used as a secondary procedure to screen for or to evaluate and differentiate between amylin agonists and amylin antagonists. In the soleus muscle assay, amylin and amylin agonists inhibit insulin-stimulated glycogenesis. Amylin antagonists counteract this amylin inhibition which results in the recovery of insulin-stimulated glycogenesis.
Assays of biological activity of amylin preparations in the soleus muscle are performed using previously described methods (Leighton, B. and Cooper, G. J. S. (1988) Nature 335: 632-635; Cooper, G. J. S., Leighton, B., Dimitriadis, G. D., Parry-Billings, M., Kowalchuk, J. M., Howland, K., Rothbard, J. B., Willis, A. C. and Reid, K. B. M. (1988) Proc. Natl. Acad. Sci. USA 85: 7763-7766.) In summary, amylin agonist activity is assessed by measuring the inhibition of insulin-stimulated glycogen synthesis in soleus muscle in response to an amylin agonist. Amylin antagonist activity is assessed by measuring the resumption of insulin-stimulated glycogen synthesis in the presence of 100 nM rat amylin and an amylin antagonist. Concentrations of peptide dissolved in carrier-free buffers are determined by quantitative amino acid analysis, as described therein. The ability of compounds to act as antagonists in this assay is determined by measuring IC50 values. Standard errors are determined by fitting of sigmoidal dose response curves using a four parameter logistic equation (De Lean, A., Munson, P. J., Guardabasso, V. and Rodbard, D. (1988) ALLFIT, Version 2.7, National Institute of Child Health and Human Development, N.I.H. Bethesda, Md., 1 diskette).

[2] = system: insulin resistance caused by administered amylin; test: infusion into rats, reversal of amylin-induced insulin resistance; format: in vivo; settings: infusions into rats
Source text: A number of amylin antagonists have been characterized using these biological assays. The N-terminally deleted peptides ^8-37 Peptide A, ^8-37 Peptide B and ^8-32 Peptide C, were all found to compete with amylin in the receptor binding assay. […] ID. NO. 195]; ^9-37 Peptide B [SEQ. ID. NO. 27]; ^11-37 Peptide B [SEQ. ID. NO. 29]; ^18-37 Peptide B [SEQ. ID. NO. 36]; ^26 Asp^27 Val^29 Ala^8-32 Peptide C [SEQ. ID. NO. 196]; ^30 Asn^32 Tyr^8-32 Peptide C [SEQ. ID. NO. 197]; Ac-^9-32Peptide C [SEQ. ID. NO. 48]; Ac-^30 Asn^32 Tyr^9-32 Peptide C [SEQ. ID. NO. 198]; ^9-23 Peptide C^29-37 Peptide A [SEQ. ID. NO. 199]; Ac-^9-23 Peptide C^29-37 Peptide A; Adm-^9-23 Peptide C^29-37 Peptide A; Ac-^11 Arg^15 Leu^18 Arg^30 Asn^32 Tyr^9-32 Peptide C [SEQ. ID. NO. 200]; Ac-^11 Arg^18 Arg^30 Asn^32 Tyr^9-32 Peptide C [SEQ. ID. NO. 201]; Ac-^18 Arg^30 Asn^32 Tyr^9-32 Peptide C [SEQ. ID. NO. 202]. Infusions of ^8-37 Peptide B [SEQ. ID. NO. 26], ^8-32 Peptide C [SEQ. ID. NO. 47], and Ac-^11 Arg ^18 Arg^30 […] Tyr^9-32 Peptide C [SEQ. ID. NO.

Substance: VLGKLSQELHKLQTYPRTNTGSGTP-NH2 [^8-32 Peptide C]
- amylin agonist activity as measured by the soleus muscle assay [1]: negligible agonist activity
- amylin antagonist activity in the soleus muscle assay [1]: act as amylin antagonists
- reversal of insulin resistance caused by administered amylin [2]: reverse the insulin resistance caused by administered amylin

Substance: ^8-37 Peptide B (VTHRLAGLLSRSGGVVKNNFVPTNVGSKAF) [ID; NO; 26]
- amylin agonist activity as measured by the soleus muscle assay [1]: negligible agonist activity
- amylin antagonist activity in the soleus muscle assay [1]: act as amylin antagonists
- reversal of insulin resistance caused by administered amylin [2]: reverse the insulin resistance caused by administered amylin
